Here are results for 1 compound from PMC9272937, “Anti-breast cancer sinomenine derivatives via mechanisms of apoptosis induction and metastasis reduction” (Journal of Enzyme Inhibition and Medicinal Chemistry, 2022).

A word on the IC50: it is the concentration at which inhibition is half-maximal.

Test [1] relates to MDA-MB-231 cells. In words: Comet assay (DNA damage). The settings on record: 0.41, 0.82, 1.64 μM, 72 h, MDA-MB-231, neutral comet assay. The format is cell-based, human. As to the method: All DNA damage sustained in this assay was measured via Comet Assay Kit (Keygen, Nanjing, China) according to the manufacturer’s instructions. 7Cc was added to MDA-MB-231 cells at predetermined concentrations (0, 0.41, 0.82, 1.64 μM) for 72 h. These cells were then collected and fixed on CometSlide at 4 °C for 15 min. After that, the cells were set under lysis solution at 4 °C for 90 min and these slides were electrophoresed for 20 min, fixed in ethanol for 5 min, and then stained with Vista Green DNA Dye. The final results were acquired by a fluorescence microscope.

Test [2] can be described thus: Griess assay, NO-releasing capacity. The settings on record: 10^−4 mol/l compound, L-cysteine, 37 °C. As to the method:
The NO-releasing capacity of each target compound was determined by the colorimetric method under the instructions of the manufacturer. Preparation of standard curves of 0, 1.56, 3.13, 6.25, 12.5, 25, 50 and 100 μmol/L nitrite nitrogen series standard solution was prepared. 50 μL to 96-well plate was added respectively and then mixed with 50 μL Griess I and Griess II; the absorption value was measured at 540 nm wavelength. A standard curve was drawn from the obtained data. Compounds were formulated into 10^−4 mol/l with PBS (pH = 7.4) and pharmaceutical DMSO. The newly formulated L-cysteine solution 100 μL ([…]) was added and incubated at 37 °C for 15, 30, 45, 60, 90, 120, 150 and180 min, respectively. Griess I and II recovered to room temperature, 50 μL of compounds 7A–E(a–c) were added respectively into the 96-well plate, and then 50 μL of Griess I and 50 μL of Griess II were added in sequence, with the absorbance tested at 540 nm. The amount of NO released was then calculated according to the standard curve.

For test [3], the system named is MDA-MB-231 cells. The test can be described thus: Mitochondrial membrane potential assay (JC-1, flow cytometry). It is filed as cell-based, human. The settings on record: 48 h, control 3.67%. As to the method:
Briefly, MDA-MB-231 cells in logarithmic growth were placed in 6-well plates with 200,000 cells per well for 24 h before a medium remove and then incubated with 7Cc at predetermined concentrations (0, 0.41, 0.82, 1.64 μM) for 48 h. Cells were collected after and washed with PBS. JC-1 dye was added to cells for staining under total dark conditions according to the manufacturer's instructions (KGA601, KeyGEN Biotech, Nanjing, China). The percentage of cells with collapsed mitochondrial membrane potentials was detected by flow cytometry.

Test [4] relates to MDA-MB-231 cells. The test can be described thus: Wound healing assay. It is filed as cell-based, human. The settings on record: 0.41, 0.82, 1.64 μM, 24 h. As to the method: In this assay, 6-well plates with 200,000 cells per well were used for the culture of MDA-MB-231 cells at 37 °C for 24 h and the medium of each well was removed. Then, 7Cc at predetermined concentrations (0, 0.41, 0.82, 1.64 μM) was added to the cell culture for incubation. After that, sterile pipette tips were utilised to scratch cell culture in 6-well plates in an even fashion, and detached cells were washed away by PBS with culture medium replaced anew afterward. After 24 h of additional incubation, cell cultures were photographed and migration distance examined accurately.

Test [5] deals with human mammary gland tumour cell line MCF-7. In words: CCK-8 antiproliferative assay, MCF-7. It is filed as cell-based. As to the method:
(§1) The antiproliferative activities of target compounds were examined by CCK-8 assay in three cancer cells (human lung cancer cell line A549, human mammary gland tumour cell line MCF-7 and human TNBC cell line MDA-MB-231) and one normal cell (human normal breast cell line MCF10A). All cell lines were sourced from KeyGEN Biotech, […], China, and a standard DMEM medium was applied to all cell cultures then subjected to 24 h incubation at 37 °C in a humidified environment with 5% CO2. After that logarithmic growing cells were plated on 96-well plates with 8,000 cells per well in a […] medium for 24 h incubation at 37 °C with 5% CO2. The DMEM medium with bovine serum was removed from each well. Then, prerequisite target compounds and positive controls were added to different cell lines in a predetermined concentration regiment for 48 h culture.
For orientation: Tetrazolium assays rely on reduction of a dye to a coloured formazan, in cell work by metabolically active cells.

Test [6] deals with MDA-MB-231 cells. In words: Cell cycle analysis (PI staining, flow cytometry). The format is cell-based, human. The settings on record: 72 h; for share of S phase in cell cycle: control 45.39%. As to the method: This assay was conducted on 6-well plates with 200,000 MDA-MB-231 cells per well and incubated for 24 h at 37 °C with 5% CO2, then the medium from each well was removed and treated by 7Cc in different concentrations (0, 0.41, 0.82, 1.64 μM) for additional 72 h incubation. The desired cell suspension was acquired after attached cells were digested then collected and washed in terms. Cell suspension was then subjected to fixation via 70% ethanol and washed with phosphate-buffered solution (PBS), incubated with 100 μL Rnase A, and placed on water bathed for half an hour at 37 °C. For the final step, 400 μL PI was applied to the mixture in a dark environment at 4 °C for 30 min. Then the distribution of DNA content was measured by flow cytometry (FACS Calibur Becton-Dickinson, Franklin Lake, NJ).
On the technique in general: In flow cytometry, cells or beads pass a laser one at a time.

The test system of test [7] is human TNBC cell line MDA-MB-231. In words: CCK-8 antiproliferative assay, MDA-MB-231. It is filed as cell-based. As to the method: as §1
For test [8], the system named is human normal breast cell line MCF10A. In words: CCK-8 assay, normal cells MCF10A. It is filed as cell-based. The settings on record: MCF-10A, CCK-8, 48 h, mean ± SD of three experiments. As to the method:
as §1

Test [9] relates to MDA-MB-231 cells. In words: Cell apoptosis assay (annexin V-FITC/PI, flow cytometry). The format is cell-based, human. The settings on record: 72 h, negative control 5.98%. As to the method: This assay was performed on 6-well plates with 200,000 MDA-MB-231 cells per well and incubated for 24 h at 37 °C with 5% CO2, then the medium from each well was removed and treated by 7Cc in different concentrations (0, 0.41, 0.82, 1.64 μM) for additional 72 h incubation. Subsequently, 500 μL of binding buffer was applied to suspend and collect compound treated cells. Then, 5 μL of both annexin V-fluorescein isothiocyanate (Annexin V-FITC) and propidium iodide (PI) was applied to the mixture and this reaction was placed under total dark at room temperature for 10 min. Cell apoptosis was examined by flow cytometry.

Test [10] has as its system human lung cancer cell line A549. The test can be described thus: CCK-8 antiproliferative assay, A549. The settings on record: Homo sapiens, A549; CCK-8, 48 h, mean ± SD of three experiments. The format is cell-based. As to the method: as §1
Test [11] deals with MDA-MB-231 cells. In words: Adhesion assay. It is filed as cell-based, human. The settings on record: 0.41, 0.82, 1.64 μM, 72 h, dose-dependent. As to the method:
MDA-MB-231 cells were incubated in different plates and then treated with 7Cc in different concentrations (0, 0.41, 0.82, 1.64 μM) for 72 h. After that, the CAM ([…]) stain treated serum-free medium was applied and 96-well plates were seeded with 100 μL already prepared cell suspension at 2,000 cells per good concentration for an hour. Then, plates were washed by PBS, fixed via 3.7% formaldehyde, another PBS wash, and photographed by fluorescence microscope.

Test [12] relates to MDA-MB-231 cells. In words: Transwell assay. The settings on record: 0.41, 0.82, 1.64 μM, 24 h, concentration-dependent. It is filed as cell-based, human. As to the method:
Then, cells attached to the upper surface of the membrane were removed while migrated or invaded cells of the lower membrane surface were added 0.1% crystal violet staining for 30 min. Then, migrated or invaded cells of the lower chamber were photographed and counted.

For the compound `COC1=CC2[C@H]3Cc4ccc(OC)c(OC(=O)c5ccccc5C(=O)OCCCCOc5no[n+]([O-])c5S(=O)(=O)c5ccccc5)c4[C@@]2(CCN3C)CC1=O` (stereo partly drawn) [7Cc, 4–(4-((2-((((4bs,9R)-3,7-Dimethoxy-11-methyl-6-oxo-6,8a,9,10-tetrahydro-5H-9,4b-(epiminoethano)phenanthren-4-yl)oxy)carbonyl)benzoyl)oxy)butoxy)-3-(phenylsulfonyl)-1,2,5-oxadiazole 2-oxide], in the test with MDA-MB-231 cells [1], the “DNA damage (double-strand DNA breaks, comet tail)” value is “significant presence of endogenous DSBs was observed”. Moreover, the “time at which top volume of NO released was reached” value in [2] is listed as 90 min. The “NO release at 180 min” value in test [2] (180 min) turned out to be 39.27 µmol/L. Also, the “percentage of cells with collapsed mitochondrial membrane potential (JC-1)” value with MDA-MB-231 cells [3] (0.41 μM) was found to be 16.40%; in the test with MDA-MB-231 cells [3] (0.82 μM), 31.01%; in the test with MDA-MB-231 cells [3] (1.64 μM), 49.98%. The “migration (wound closure)” value in the test with MDA-MB-231 cells [4] is “inhibited migration”. For the same compound, the IC50 in test [5] (Homo sapiens, MCF7, 48 h, read-out: IC50 MCF-7) amounted to 1.75 ± 0.15 µM; in test [7] (Homo sapiens, MDA-MB-231, 48 h, read-out: IC50 MDA-MB-231) it was 0.82 ± 0.02 µM; in test [8], 27.5 ± 2.34 µM; in [10], 1.94 ± 0.05 µM. The “SI MCF-7 (selectivity index)” value in test [5] (SI = IC50(MCF-10A)/IC50(MCF-7)) was found to be 15.73. For the same compound, the “share of S phase in cell cycle” value turned out to be 49.10% in the test with MDA-MB-231 cells [6] (0.41 μM), 57.27% in the test on MDA-MB-231 cells [6] (0.82 μM) and 64.15% in the test with MDA-MB-231 cells [6] (1.64 μM). In addition, in the test with MDA-MB-231 cells [6] (1.64 μM, control 10.09%), the “share of G2 phase in cell cycle” value was 5.76%. Also, the “share of G1 phase in cell cycle” value in the test with MDA-MB-231 cells [6] (1.64 μM, control 44.52%) is 30.09%. The “SI MDA-MB-231 (selectivity index)” value in [7] (SI = IC50(MCF-10A)/IC50(MDA-MB-231)) came to 33.57. Also, the figures for the “apoptotic portions of cells (two quadrants from the right side)” value in the test on MDA-MB-231 cells [9] (0.41 μM), in the test on MDA-MB-231 cells [9] (0.82 μM) and in the test on MDA-MB-231 cells [9] (1.64 μM) were 16.66%, 26.62% and 53.28%, respectively. Moreover, the cellular adhesion entry in the test on MDA-MB-231 cells [11] was “clear prevention of TNBC cellular adhesion”. Also, in the test with MDA-MB-231 cells [12], the “invasion (cells permeated through transwell membrane)” value is given as “notably reduced the number of cells permeated through the membrane”.
